{"source": "paper PMC7662639", "about": "“Synthesis and Evaluation of PEG-PR for Water Flux Correction in an In Situ Rat Perfusion Model” (Molecules, 2020)", "key": {"[1]": {"experiment": "Stability of markers and model drugs in Krebs–Ringer buffer (shaker bath, 37 °C, 120 min)", "type": "physicochemical", "conditions": "for Ending (120 min) Conc. / Initial Conc.: 37 °C shaker bath, mean ± SD, n = 3; for Initial Conc.: start of experiment; for Percentage of concentration change: (Initial Conc. - Ending Conc.) / Initial Conc., 37 °C; for Ending (120 min) Conc. / Percentage of concentration change: 120 min", "method": "At the beginning and end (120 min) of the experiment, perfusion solution samples (0.4 mL) were acquired and centrifuged at 12,000 rpm for 10 min to determine the concentration changes of all compounds by HPLC analysis.\nTable S1. Concentration changes of all compounds before and after the shaker bath\nexperiment. Data are shown as mean ± SD, n = 3.\nInitial Ending Percentage of\nCompound (120 min) concentration\nAs/Ai Conc. (μM) As/Ai Conc. (μM) change\nAs: HPLC peak area of compound .\nAi: HPLC peak area of internal standard .\nPercentage of concentration change: (Initial Conc. -Ending Conc.) / Initial Conc.\nFigure S7. Calibration line of PR (MW = 354) in Krebs–Ringer buffer.\n(1 picture or pasted object on this page, not shown here)"}, "[2]": {"experiment": "Everted gut sac (EGS) permeability", "type": "in vitro ADME, rat", "method": "Briefly, the male Wistar rats were fasted for 1 day with access to only double-distilled water and then anesthetized with ether. Then, the duodenum, jejunum, ileum, and colon (10–15 cm) were cut out and preserved in cold Krebs–Ringer buffer. After the intestinal residue was removed, the intestinal segments were everted by a glass rod and ligated onto the appropriate glass tube. […] Then, 0.4 mL of receiver fluid was collected from the everted intestinal segments, and an equal blank Krebs–Ringer buffer was replenished every 15 min during the experiment.\nAn internal standard (cresol red 100 μg/mL) was added to every 300-μL intestinal fluid sample. The mixture was vortexed for 30 s and dried under nitrogen blowing at 40 °C. The residue was redissolved in 150-μL methanol and vortexed for 30 s. The supernatant was then subjected to detection by HPLC after centrifuging at 10,000 rpm for 10 min."}, "[3]": {"experiment": "Water flux (Jwater) corrected by marker in the recirculation perfusion model", "type": "in vivo, rat", "conditions": "60–120 min, marker 56 μM, mean ± SD, n = 6", "method": "The effective intestinal membrane permeability (Peff) of each model drug was surveyed using the recirculation intestinal perfusion method, as previously mentioned. A male rat weighing about 200 g was anesthetized and then fixed on a plate heated by a lamp at 37 °C. Through careful operation, two glass tubs were tightly secured on both ends of the intestinal segment using silk sutures. The Krebs–Ringer buffer was injected into the gut from the head end of the intestinal segment with a syringe until the outflow was clear. The intestine was then covered with cotton gauze wetted with 37 °C Krebs–Ringer buffer to maintain intestinal integrity and activity. The peristaltic pump and donor chamber (syringe) were connected with two catheters ligated onto the two abovementioned glass tubs. […] Finally, the length of the perfused intestinal segment was precisely measured at the end of the experiment.\nAs previously mentioned, the water flux through the membrane due to water absorption and secretion was of such significance that it could have influence on the accuracy of the experimental results. […] In this work, the volumes of the perfused solutions (Vt) were calculated from the experimental concentrations of the markers (C’t) as (4) V0=C^′V^′/C0′ (5) Vt=(V0−0.4)Ct−1′+0.4C^′/Ct′ (t=1,2,3…).\nJwater corrected by the marker was calculated using the following equation:(9) Jwater=d(V0−Vt)/dt (t=1,2,3…)."}, "[4]": {"design": "method as in ref 22 (Sutton et al. 2001)", "conditions": "SPIP; ref 22 (Sutton et al. 2001); cited from earlier work"}, "[5]": {"design": "method as in ref 21 (Tugcu-Demiroz et al. 2014)", "conditions": "Doluisio technique; ref 21 (Tugcu-Demiroz et al. 2014); cited from earlier work"}, "[6]": {"conditions": "after 8 h, rat perfusion experiments; cited from earlier work"}, "[7]": {"experiment": "Recirculation intestinal perfusion method, Peff of model drugs with water flux corrected by marker", "type": "in vivo, rat", "method": "A male rat weighing about 200 g was anesthetized and then fixed on a plate heated by a lamp at 37 °C. Through careful operation, two glass tubs were tightly secured on both ends of the intestinal segment using silk sutures. The Krebs–Ringer buffer was injected into the gut from the head end of the intestinal segment with a syringe until the outflow was clear. The intestine was then covered with cotton gauze wetted with 37 °C Krebs–Ringer buffer to maintain intestinal integrity and activity. The peristaltic pump and donor chamber (syringe) were connected with two catheters ligated onto the two abovementioned glass tubs. The intestinal segments were placed carefully back into the rat abdomen to avoid interference with blood circulation. […] After stabilizing the whole system for 10 min with the perfusion solution (peristaltic pump, flow: 5 mL/min), the initial sample (0.4 mL, C’0) was collected from the donor chamber, and the equal perfusion solution with the model drug (100 μM, C0) was added into the donor chamber. Samples (0.4 mL, C’t and Ce) were then collected every 10 min for 60 min. Finally, the length of the perfused intestinal segment was precisely measured at the end of the experiment.\nInternal standard solution (cresol red, 600 μg/mL) was added into the 300-μL sample solution and vortexed for 30 s. Then, 600 μL of […] was added, and the samples were vortexed for 2 min. After homogeneous mixing, the mixture was centrifuged at 10,000 rpm for 10 min. Finally, the 20-μL treated supernatant was subjected to detection by HPLC.\nThus, it was necessary to correct the volume of the perfusion solution during the experiment. In this work, the volumes of the perfused solutions (Vt) were calculated from the experimental concentrations of the markers (C’t) as (4) V0=C^′V^′/C0′ (5) Vt=(V0−0.4)Ct−1′+0.4C^′/Ct′ (t=1,2,3…).\nThe corrected drug concentration (Ct) was calculated as (6) Ct=CeVt/V0 where Ct represents the concentration of the compound corrected by the marker at time t, and Ce represents the experimental drug concentration value.\nThe apparent absorption rate coefficients (ka) were obtained by the equation of luminal corrected concentration versus time:(7) Ct=C0×e^−ka·t.\nThe Peff value was obtained from ka using the following equation, where R is the effective radius of the intestinal segment:(8) Peff=Ka·R/2."}, "[8]": {"design": "method as in ref 39 (Ruiz-Picazo et al. 2017)", "conditions": "Doluisio method, ref 39 (Ruiz-Picazo et al. 2017), cited from earlier work"}, "[9]": {"conditions": "rat complete small intestine, water flux corrected by PEG4k-PR, mean ± SD, n = 3"}, "[10]": {"conditions": "rat complete small intestine, water flux corrected by PEG5k-PR, mean ± SD, n = 3"}, "[11]": {"conditions": "rat complete small intestine, water flux corrected by PR, mean ± SD, n = 3"}}, "note": "Where two headings read alike, the source gives them in different places."}
{"compound": "Phenol red [PR]", "values": [{"measurement": "Ending (120 min) Conc.", "setting": "[1]", "result": "56.11 ± 1.57", "unit": "µM"}, {"measurement": "Initial Conc.", "setting": "[1]", "result": "56.90 ± 1.10", "unit": "µM"}, {"measurement": "Percentage of concentration change", "setting": "[1]", "result": 1.38, "unit": "%"}, {"measurement": "cumulative permeable percentage", "setting": "[2]; 56 μM, all intestinal segments", "result": "3–5%"}, {"measurement": "cumulative permeable percentage at 112 μM relative to 28 μM", "setting": "[2]; colon", "result": "twice as large"}, {"measurement": "Papp", "setting": "[2]; colon, 28 μM", "result": "4.07 ± 1.33 ×10^−6 cm/s"}, {"measurement": "W (cumulative permeable percentage)", "setting": "[2]; colon, 28 μM", "result": "2.50 ± 0.82", "unit": "%"}, {"measurement": "Papp", "setting": "[2]; colon, 56 μM", "result": "5.83 ± 1.9 ×10^−6 cm/s"}, {"measurement": "W (cumulative permeable percentage)", "setting": "[2]; colon, 56 μM", "result": "3.36 ± 0.79", "unit": "%"}, {"measurement": "Papp", "setting": "[2]; colon, 112 μM", "result": "8.57 ± 3.54 ×10^−6 cm/s"}, {"measurement": "W (cumulative permeable percentage)", "setting": "[2]; colon, 112 μM", "result": "5.18 ± 1.22", "unit": "%"}, {"measurement": "Papp", "setting": "[2]; ileum, 28 μM", "result": "6.17 ± 2.17 ×10^−6 cm/s"}, {"measurement": "W (cumulative permeable percentage)", "setting": "[2]; ileum, 28 μM", "result": "3.55 ± 1.50", "unit": "%"}, {"measurement": "Papp", "setting": "[2]; ileum, 56 μM", "result": "6.77 ± 2.32 ×10^−6 cm/s"}, {"measurement": "W (cumulative permeable percentage)", "setting": "[2]; ileum, 56 μM", "result": "4.23 ± 1.38", "unit": "%"}, {"measurement": "Papp", "setting": "[2]; ileum, 112 μM", "result": "8.90 ± 1.65 ×10^−6 cm/s"}, {"measurement": "W (cumulative permeable percentage)", "setting": "[2]; ileum, 112 μM", "result": "5.27 ± 2.31", "unit": "%"}, {"measurement": "Papp", "setting": "[2]; jejunum, 28 μM", "result": "7.68 ± 2.04 ×10^−6 cm/s"}, {"measurement": "W (cumulative permeable percentage)", "setting": "[2]; jejunum, 28 μM", "result": "4.44 ± 1.98", "unit": "%"}, {"measurement": "Papp", "setting": "[2]; jejunum, 56 μM", "result": "8.36 ± 3.11 ×10^−6 cm/s"}, {"measurement": "W (cumulative permeable percentage)", "setting": "[2]; jejunum, 56 μM", "result": "4.92 ± 1.12", "unit": "%"}, {"measurement": "Papp", "setting": "[2]; jejunum, 112 μM", "result": "10.42 ± 2.58 ×10^−6 cm/s"}, {"measurement": "W (cumulative permeable percentage)", "setting": "[2]; jejunum, 112 μM", "result": "5.77 ± 1.70", "unit": "%"}, {"measurement": "Jwater (water flux) corrected by the marker", "setting": "[3]", "result": "88.7 ± 37.9", "unit": "µL/cm/h"}, {"measurement": "average corrected water flux", "setting": "[4]", "result": "26.8 ± 49.2", "unit": "µL/cm/h"}, {"measurement": "water flux", "setting": "[5]", "result": 55, "unit": "µL/cm/h"}, {"measurement": "urinary recovery", "setting": "[6]", "result": "about 4%"}]}
{"compound": "CC(C)NCC(O)COc1ccc(CC(N)=O)cc1", "note": "(stereo not drawn) [Atenolol]", "values": [{"measurement": "Ending (120 min) Conc.", "setting": "[1]", "result": "105.93 ± 0.61", "unit": "µM"}, {"measurement": "Initial Conc.", "setting": "[1]", "result": "105.19 ± 0.96", "unit": "µM"}, {"measurement": "Percentage of concentration change", "setting": "[1]", "result": 0.75, "unit": "%"}, {"measurement": "Peff", "setting": "[7]; colon, corrected by PEG5k-PR", "result": "3.3e-05", "unit": "cm/s"}, {"measurement": "Peff", "setting": "[7]; ileum, corrected by PEG5k-PR", "result": "2.3e-05", "unit": "cm/s"}, {"measurement": "Peff", "setting": "[7]; jejunum, corrected by PEG5k-PR", "result": "2.6e-05", "unit": "cm/s"}, {"measurement": "Peff", "setting": "[7]; [9]", "result": "1.06 ± 0.24 ×10^−5 cm/s"}, {"measurement": "Peff", "setting": "[7]; [10]", "result": "1.38 ± 0.34 ×10^−5 cm/s"}, {"measurement": "Peff", "setting": "[7]; [11]", "result": "0.49 ± 0.10 ×10^−5 cm/s"}, {"measurement": "Peff", "setting": "[8]; colon", "result": 21.1, "unit": "×10⁻⁶ cm/s"}, {"measurement": "Peff", "setting": "[8]; ileum", "result": 16.3, "unit": "×10⁻⁶ cm/s"}, {"measurement": "Peff", "setting": "[8]; jejunum", "result": 22.7, "unit": "×10⁻⁶ cm/s"}]}
{"compound": "COCCc1ccc(OCC(O)CNC(C)C)cc1", "note": "(stereo not drawn) [Metoprolol]", "values": [{"measurement": "Ending (120 min) Conc.", "setting": "[1]", "result": "102.12 ± 0.58", "unit": "µM"}, {"measurement": "Initial Conc.", "setting": "[1]", "result": "103.62 ± 2.29", "unit": "µM"}, {"measurement": "Percentage of concentration change", "setting": "[1]", "result": 1.46, "unit": "%"}, {"measurement": "Peff", "setting": "[7]; colon, corrected by PEG5k-PR", "result": 0.000102, "unit": "cm/s"}, {"measurement": "Peff", "setting": "[7]; ileum, corrected by PEG5k-PR", "result": "9.4e-05", "unit": "cm/s"}, {"measurement": "Peff", "setting": "[7]; jejunum, corrected by PEG5k-PR", "result": 0.000107, "unit": "cm/s"}, {"measurement": "Peff", "setting": "[7]; [9]", "result": "5.06 ± 0.57 ×10^−5 cm/s"}, {"measurement": "Peff", "setting": "[7]; [10]", "result": "5.29 ± 1.49 ×10^−5 cm/s"}, {"measurement": "Peff", "setting": "[7]; [11]", "result": "5.11 ± 0.85 ×10^−5 cm/s"}]}
